IC50 and Ki data for 14 molecules are collected here from patent publication US7820649B2, “Quinazolinone and isoquinolinone acetamide derivatives” (N.V. Organon, priority 2006, dated 2010).

One assay concerns the target T1, V3 receptor (Rattus norvegicus, UniProt P48974).
T1 construct: Anterior pituitary corticotrophs were prepared from adult female Sprague-Dawley rats; endogenous in cells; host or cells: primary anterior pituitary corticotrophs from adult female Sprague-Dawley rats
T1 sequence (P48974 1-425): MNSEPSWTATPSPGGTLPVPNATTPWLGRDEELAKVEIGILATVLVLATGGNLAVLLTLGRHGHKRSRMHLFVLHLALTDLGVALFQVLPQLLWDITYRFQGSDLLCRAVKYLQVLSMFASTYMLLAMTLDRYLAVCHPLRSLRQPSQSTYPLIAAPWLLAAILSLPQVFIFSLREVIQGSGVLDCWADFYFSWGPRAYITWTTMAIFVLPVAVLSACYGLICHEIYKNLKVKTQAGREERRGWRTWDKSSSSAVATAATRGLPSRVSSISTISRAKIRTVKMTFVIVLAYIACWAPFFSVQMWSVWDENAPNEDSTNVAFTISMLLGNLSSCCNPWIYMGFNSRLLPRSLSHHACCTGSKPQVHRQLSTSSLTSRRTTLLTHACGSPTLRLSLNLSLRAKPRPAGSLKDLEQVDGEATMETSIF
Description: Block of AVP-induced ACTH release from isolated rat anterior pituitary corticotrophs. In kind it is cell-based. The note with it: ACTH release after 3x10^-9 mol/L AVP for 120 minutes, ELISA; read-out: V3 receptor antagonism in isolated rat anterior pituitary cells. The protocol:
The ability of compounds of the invention to act as V3 antagonists in a physiologically relevant system was determined by measuring their ability to block the release of adrenocorticotropic hormone (ACTH) from anterior pituitary corticotrophs in response to treatment with arginine vasopressin (AVP).
Anterior pituitary corticotrophs were prepared from adult female Sprague-Dawley rats and seeded into 48 well plates. The cells were cultured for 4 days prior to exposure to compound. Test compounds were prepared at […] in 100% DMSO. Cells were exposed to a dose response of test compounds for 20 minutes (10^−8 mol.L^−1-10^−5 mol.L^−1). The final concentration of DMSO in the assay was kept constant at 0.3%. The cells were then exposed to 3×10^−9 mol.L^−1 AVP for 120 minutes. Supernatants were harvested and stored at −20° C. ACTH levels were subsequently measured by ELISA following the manufacturer's instructions (Immunodiagnostic systems, UK (Cat No. DX-SDX018)). Each treatment was carried out in quadruplicate and a mean value obtained for the amount of ACTH released. The degree of antagonism was then calculated as a percentage of the amount of ACTH released by agonist alone after adjustment for basal levels of ACTH. A pIC50 was calculated by fitting a Sigmoidal dose response (variable slope) curve with a non-linear (fit) to the data using the software package GraphPad prism. […]
A general note: ELISA stands for enzyme-linked immunosorbent assay.
As to `COc1cccc(-c2nc3ccc(N4CCCN(C(C)C)CC4)cc3c(=O)n2CC(=O)NC(C)C)c1` [Example 4b, N-Isopropyl-2-[6-(4-isopropylperhydro-1,4-diazepin-1-yl)-2-(3-methoxyphenyl)-4-oxo-4H-quinazolin-3-yl]acetamide], the IC50 lay within 0.01 to 0.1 µM.

The next assay addresses T2, human V3 receptor (Homo sapiens, UniProt P47901).
T2 construct: expressed in transfected cells
T2 sequence (P47901 1-424): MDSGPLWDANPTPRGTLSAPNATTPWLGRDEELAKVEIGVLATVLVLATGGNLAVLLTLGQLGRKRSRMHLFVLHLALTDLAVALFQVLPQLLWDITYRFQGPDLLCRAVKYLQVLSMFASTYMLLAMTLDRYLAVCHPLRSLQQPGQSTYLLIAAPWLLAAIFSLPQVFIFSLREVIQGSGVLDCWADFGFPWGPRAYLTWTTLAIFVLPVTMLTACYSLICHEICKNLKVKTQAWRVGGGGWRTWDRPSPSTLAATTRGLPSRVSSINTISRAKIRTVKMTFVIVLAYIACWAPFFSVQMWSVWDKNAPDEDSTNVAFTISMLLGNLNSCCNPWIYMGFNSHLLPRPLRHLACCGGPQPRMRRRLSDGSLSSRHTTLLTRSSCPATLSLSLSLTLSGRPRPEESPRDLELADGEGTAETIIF
Description: [3H]AVP binding to CHO cells stably expressing the human V3 receptor. The following applies: [3H]AVP 2.5x10^-9 mol/L. The method, then: Chinese Hamster Ovary (CHO) cells stably expressing the human V3 receptor were incubated to equilibrium with the test compound (at a final assay concentration of 10^−10 mol.L^−1 to 10^−5 mol.L^−1) and [^3H]AVP (at a final assay concentration of 2.5×10^−9 mol.L^−1). […] After washing with ice-cold phosphate buffered saline (PBS), scintillation fluid was added and the plates counted on a Topcount NXT apparatus.
A sigmoidal dose response curve (non-linear regression, variable slope) was plotted as concentration of test compound (mol.L^−1) against percentage specific binding of [^3H]AVP and a Ki value was calculated. Each determination was carried out in triplicate and repeated on at least 3 separate occasions
The Ki is the dissociation constant of the complex between target and ligand, obtained from inhibition or displacement. In the case of `CC(C)NC(=O)Cn1c(-c2cccc(Cl)c2)nc2ccc(N3CCCNCC3)cc2c1=O` [Example 1b, 2-[2-(3-Chlorophenyl)-4-oxo-6-perhydro-1,4-diazepin-1-yl-4H-quinazolin-3-yl]-N-isopropylacetamide], the Ki was less than 0.01 µM.
Same read-out and setting: the same measure for `COc1cccc(-c2nc3ccc(N4CCNCC4)cc3c(=O)n2CC(=O)NC(C)C)c1` [Example 2b, N-Isopropyl-2-[2-(3-methoxyphenyl)-4-oxo-6-piperazin-1-yl-4H-quinazolin-3-yl]acetamide]: 0.01 to 0.1 µM; for `COc1cccc(-c2nc3ccc(N4CCCC(CN(C)C)C4)cc3c(=O)n2CC(=O)NC(C)C)c1` (centres unmarked) [Example 3c, 2-[6-(3-Dimethylaminomethyl-piperidin-1-yl)-2-(3-methoxyphenyl)-4-oxo-4H-quinazolin-3-yl]-N-isopropylacetamide]: 0.01 to 0.1 µM; for `COc1cccc(-c2nc3ccc(N4CCC[C@H](CN5CCCCC5)C4)cc3c(=O)n2CC(=O)NC(C)C)c1` [Example 3f, N-Isopropyl-2-[2-(3-methoxyphenyl)-4-oxo-6-((R)-3-piperidin-1-ylmethylpiperidin-1-yl)-4H-quinazolin-3-yl]acetamide]: less than 0.01 µM.
Still for that read-out and setting: then `COc1cccc(-c2nc3ccc(N4CCCN(CC(F)(F)F)CC4)cc3c(=O)n2CC(=O)NC(C)C)c1` [Example 4c, N-Isopropyl-2-{2-(3-methoxyphenyl)-4-oxo-6-[4-(2,2,2-trifluoroethyl)Perhydro-1,4-diazepin-1-yl]-4H-quinazolin-3-yl}acetamide], with 0.1 to 1 µM; and `COCCN1CCCN(c2ccc3nc(-c4cccc(OC)c4)n(CC(=O)NC(C)C)c(=O)c3c2)CC1` [Example 4d, N-Isopropyl-2-[6-[4-(2-methoxyethyl)perhydro-1,4-diazepin-1-yl]-2-(3-methoxyphenyl)-4-oxo-4H-quinazolin-3-yl]acetamide], with less than 0.01 µM.
`CC(C)NC(=O)Cn1c(-c2ccc(F)c(Cl)c2)nc2ccc(N3CCCN(CC(C)(C)C)CC3)cc2c1=O` [Example 5Ac, 2-{2-(3-Chloro-4-fluorophenyl)-6-[4-(2,2-dimethylpropyl)perhydro-1,4-diazepin-1-yl]-4-oxo-4H-quinazolin-3-yl}-N-isopropylacetamide] gave a Ki of less than 0.01 µM.
Same read-out and setting: then `CC(C)NC(=O)Cn1c(-c2ccc(F)c(Cl)c2)nc2ccc(N3CCN(C)CC(C)(C)C3)cc2c1=O` [Example 5s, 2-[2-(3-Chloro-4-fluorophenyl)-4-oxo-6-(4,6,6-trimethylperhydro-1,4-diazepin-1-yl)-4H-quinazolin-3-yl]-N-isopropylacetamide], with less than 0.01 µM; and `CC(C)NC(=O)Cn1c(-c2cc(Cl)cc(OC(F)(F)F)c2)nc2ccc(N3CCCN(C(C)C)CC3)cc2c1=O` [Example 6w, 2-[2-(3-Chloro-5-trifluoromethoxyphenyl)-6-(4-isopropylperhydro-1,4-diazepin-1-yl)-4-oxo-4H-quinazolin-3-yl]-N-isopropylacetamide], with less than 0.01 µM; and `CC(C)(C)NC(=O)Cn1c(C2CCCC2)nc2ccc(N3CCCNCC3)cc2c1=O` [Example 7a], with 0.01 to 0.1 µM.
The molecule `COCC(C)NC(=O)Cn1c(-c2ccc(F)c(OC)c2)nc2ccc(N3CCN4CCC3CC4)cc2c1=O` (centres unmarked) [Example 9Ah, 2-[6-(1,4-Diazabicyclo[3.2.2]non-4-yl)-2-(4-fluoro-3-methoxyphenyl)-4-oxo-4H-quinazolin-3-yl]-N-(2-methoxy-1-methylethyl)acetamide] showed a Ki of 0.01 to 0.1 µM.
Still for that read-out and setting: the same measure for `CCN1CCCN(c2ccc3nc(-c4ccc(F)c(OC)c4)n(CC(=O)NC(C)(C)C(F)(F)F)c(=O)c3c2)CC1` [Example 9h, 2-[6-(4-Ethylperhydro-1,4-diazepin-1-yl)-2-(4-fluoro-3-methoxyphenyl)-4-oxo-4H-quinazolin-3-yl]-N-(2,212-trifluoro-1,1-dimethylethyl)acetamide]: less than 0.01 µM.
Turning to `CC(C)N1CCCN(c2ccc3nc(-c4cccc(Cl)c4)n(CC(=O)N(C)C(C)C)c(=O)c3c2)CC1` [Example 9u, 2-[2-(3-Chlorophenyl)-6-(4-isopropylperhydro-1,4-diazepin-1-yl)-4-oxo-4H-quinazolin-3-yl]-N-isopropyl-N-methylacetamide], the Ki was in the range of 0.01 to 0.1 µM.
